# Patent US6486171B2, “Piperidine compounds” (Les Laboratoires Servier, priority 1999, dated 2002)
# Where a name gives a salt, the structure may show the parent alone.
# Key:
# [1] = target: T1, serotonin reuptake sites (Rattus norvegicus, UniProt P31652); test: Affinity for serotonin reuptake sites, [3H]-paroxetine competition; format: binding; settings: rat frontal cortex membranes, read-out: pKi, serotonin reuptake sites (converted)
# T1 construct: The membranes are prepared from rat frontal cortex; from tissue; host or cells: rat frontal cortex membranes
# T1 sequence (P31652 whole entry): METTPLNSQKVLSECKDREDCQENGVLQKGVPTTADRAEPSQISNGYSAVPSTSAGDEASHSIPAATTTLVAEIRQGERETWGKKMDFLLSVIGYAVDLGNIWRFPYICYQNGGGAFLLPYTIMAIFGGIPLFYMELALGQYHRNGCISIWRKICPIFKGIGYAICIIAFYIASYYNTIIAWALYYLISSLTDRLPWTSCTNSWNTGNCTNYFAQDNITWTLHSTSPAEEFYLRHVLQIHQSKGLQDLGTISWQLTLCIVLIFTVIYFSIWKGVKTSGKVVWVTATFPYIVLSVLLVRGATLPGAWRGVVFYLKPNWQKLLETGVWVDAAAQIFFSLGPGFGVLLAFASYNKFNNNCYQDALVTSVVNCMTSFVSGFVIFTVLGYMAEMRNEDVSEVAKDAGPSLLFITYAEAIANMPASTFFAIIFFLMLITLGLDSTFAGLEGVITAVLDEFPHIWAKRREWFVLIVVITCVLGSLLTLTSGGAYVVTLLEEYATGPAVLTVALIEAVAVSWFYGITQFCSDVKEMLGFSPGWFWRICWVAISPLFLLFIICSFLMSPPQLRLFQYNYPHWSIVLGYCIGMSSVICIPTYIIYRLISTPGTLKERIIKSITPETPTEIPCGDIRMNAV
# Description: The affinity was determined by competition experiments using [^3H]-paroxetine (NEN, Les Ulis, France). The membranes are prepared from rat frontal cortex and are incubated in triplicate for 2 hours at 25° C. with 1.0 nM [^3H]-paroxetine and cold ligand in a final volume of 0.4 ml. The incubation buffer contains […] TRIS-HCl (pH 7.4), 120 mM NaCl and 5 mM KCl. The non-specific binding is determined using 10 μM citalopram. At the end of the incubation, the incubation medium is filtered and washed three times with 5 ml of cooled buffer. The radioactivity retained on the filters is determined by liquid scintillation counting. The binding isotherms are analysed by non-linear regression to determine the IC50 values. Those values are converted into a dissociation constant (Ki) using the Cheng-Prusoff equation: […]
# wherein L is the concentration of [^3H]-paroxetine and Kd is the dissociation constant of [^3H]-paroxetine from the serotonin reuptake site (0.13 nM). The results are expressed in pKi.
# [2] = test system: serotonin level; test: Microdialysis experiment in the rat (frontal cortex); format: in vivo; settings: 10 mg/kg subcutaneously, cingulate frontal cortex dialysate
# Description: Rats are anaesthetised with pentobarbital (60 mg/kg i.p.). They are placed in a Kopf stereotactic device and the cannula guide is implanted in the cingulate frontal cortex in accordance with the coordinates described in the Paxinos and Watson atlas (1982) as follows: AP=+2.2; L=±0.6; DV=−0.2. The rats are placed in separate cages and are not used in dialysis until 5 days later. […] The probe is perfused at a flow rate of 1 μl/min. with a solution of 147.2 mM NaCl, 4 mM KCl and 2.3 mM CaCl2 adjusted to pH 7.3 with a phosphate buffer (0.1 M). Two hours after implantation, samples are collected every 20 minutes for 4 hours. Three baseline samples are taken before administration of the products to be tested. The rats are left in their individual cages for the whole of the experiment. When the experiment is finished, the rats are decapitated and the brain is removed and frozen in isopentane. […]
# The simultaneous quantification of dopamine, norepinephrine and serotonin is carried out as follows: 20 μl dialysis samples are each diluted with 20 μl of mobile phase (NaH2PO4: 75 mM; EDTA: 20 μM; sodium 1-decanesulphonate: 1 mM; methanol: 17.5%; triethylamine: 0.01%; pH: 5.7) and 33 μl samples are analysed by HPLC using a reverse phase column thermostatically maintained at 45° C. and quantified by means of a coulometric detector. […]
# [3] = test system: marble-burying behaviour of mice; test: Marble-burying test in mice; format: in vivo; settings: male NMRI mice, 30 minutes' exploration
# Source text: This test enables evaluation of the capacity of pharmacological agents to inhibit the spontaneous marble-burying behaviour of mice, the inhibition being predictive of antidepressant and/or anti-impulsive action. Male mice of the NMRI strain (Iffa-Credo, 1'Arbresle, France) weighing from 20 to 25 g on the day of the experiment are placed individually in Macrolon boxes (30×18×19 cm) containing 5 cm of sawdust and covered with a perforated plexiglass plate. Twenty four “tiger's eye” glass marbles are evenly distributed on the sawdust at the periphery of the box. At the end of 30 minutes' free exploration, the animals are removed from the box and the number of buried marbles is counted.
# [4] = test system: aggressiveness in isolated mice; test: Test of aggressiveness in isolated mice; format: in vivo; settings: male CD mice, treatment 30 minutes before test
# Source text: This test allows the evaluation of the intraspecies anti-aggressive activity of a product in mice that have been kept in isolation for several months. The test uses male CD mice (Charles River) weighing from 22 to 25 g. On their arrival, the animals are isolated in individual opaque black cages (23×14×13 cm) with a grill lid, and are housed for a prolonged period (approximately six months) in the experimentation room. The selection of aggressive pairs of mice that will be used for an extended period in the study commences after the animals have been isolated for one month. Once or twice per week a mouse from another cage (intruder) is placed in the cage of a (resident) mouse and the two animals are observed to see if they attack one another (sniffing, pursuing, nibbling, biting) during that trial. At the end of the trial (maximum duration 10 minutes), each mouse is isolated again in its own cage. If attacks have occurred, the same pair will be tested again in the next trial; if there have been no attacks, each mouse of that pair will be placed in the presence of another mouse in the subsequent trial. Thus, in the course of successive trials carried out at a rate of 1 or 2 per week, definitive pairs of mice that will be used for the experiments are selected. […] The latent period (in seconds) of the first attack and the number and total duration (in seconds) of the attacks are recorded. […]
# [5] = target: T2, 5-HT1A receptors (Homo sapiens, UniProt P08908); test: Affinity for 5-HT1A receptors, [3H]-8-OH-DPAT competition; format: binding; settings: membranes from CHO cells transfected with 5HT1A receptor, read-out: pKi, 5-HT1A receptor (converted)
# T2 construct: expressed in transfected cells; host or cells: CHO cells
# T2 sequence (P08908 1-422): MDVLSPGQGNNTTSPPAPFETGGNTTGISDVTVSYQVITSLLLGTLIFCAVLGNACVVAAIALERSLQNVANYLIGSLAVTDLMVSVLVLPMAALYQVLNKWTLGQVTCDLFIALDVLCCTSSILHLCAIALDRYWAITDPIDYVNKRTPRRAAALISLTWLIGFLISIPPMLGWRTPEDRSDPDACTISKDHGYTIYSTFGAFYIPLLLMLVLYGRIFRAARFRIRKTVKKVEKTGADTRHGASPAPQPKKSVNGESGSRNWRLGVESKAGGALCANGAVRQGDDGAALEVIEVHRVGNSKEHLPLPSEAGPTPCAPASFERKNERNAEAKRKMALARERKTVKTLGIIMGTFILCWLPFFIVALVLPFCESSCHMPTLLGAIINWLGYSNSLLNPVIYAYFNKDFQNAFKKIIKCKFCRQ
# Description: The affinity was determined by competition experiments using [^3H]-8-OH-DPAT (NEN, Les Ulis, France). The membranes, prepared from CHO cells transfected with 5HT1A receptor, were prepared as described in Neuropharmacol., 1997, 36, 451-459. The membranes were incubated in triplicate for two and a half hours at 25° C. with 0.4 nM [^3H]-8-OH-DPAT and cold ligand in a final volume of 1.0 ml. The incubation buffer contains 50 mM HEPES-NaOH (pH 7.4) and 5 mM MgCl2. The non-specific binding is determined using 10 μM 5-HT. At the end of the incubation, the incubation medium is filtered through filters impregnated with 0.1% polyethyleneimine and washed three times with 5 ml of cooled buffer. The radioactivity retained on the filters is determined by liquid scintillation counting. The binding isotherms are analysed by non-linear regression to determine the IC50 values. Those values are converted into a dissociation constant (Ki) using the Cheng-Prusoff equation: […]
# wherein L is the concentration of [^3H]-8-OH-DPAT and Kd is the dissociation constant of [^3H]-8-OH-DPAT from the 5HT1A receptor (0.65 nM). The results are expressed in pKi.
smiles,measurement,setting,value
"c1ccc2cc(CCN3CCN(c4nccc5ccoc45)CC3)ccc2c1 (as salt: fumarate) [Example 30, 7-{4-[2-(2-Naphthyl)ethyl]-1-piperazinyl}furo[2,3-c]pyridine]",melting point,,175 to 181 °C
"c1ccc2c(CCN3CCC(c4nccc5occc45)CC3)cccc2c1 [Example 7, 4-{1-[2-(1-Naphthyl)ethyl]-4-piperidinyl}furo[3,2-c]pyridine]",Ki,[1],< 31.6 nM
same,increase of the level of serotonin (maximum % of the effect compared with the baseline level defined as 0%),[2],140.5±15.2%
same,"Marble-burying in mice, ID50",[3],1.64 mg/kg s.c.
same,"Inhibitory Dose 50, aggressiveness in isolated mice",[4],less than 1.5 mg/kg i.p.
same,Ki,[5],< 31.6 nM
"c1cc2occc2c(N2CCN(CCc3ccc4c(c3)CCO4)CC2)n1 [Example 11, 4-{4-[2-(2,3-Dihydrobenzofuran-5-yl)ethyl]-1-piperazinyl}furo[3,2-c]pyridine]","Marble-burying in mice, ID50",[3],0.94 mg/kg s.c.
"CNCCC(Oc1ccc(C(F)(F)F)cc1)c1ccccc1 (centres unmarked) [fluoxetine, reference compound]","Marble-burying in mice, ID50",[3],8.03 mg/kg s.c.
